From patent publication US7544667B2, “Hypocholesterolemic compounds” (Lipideon Biotechnology AG, priority 2003, dated 2009)

Test system: rabbit brush border membrane vesicles (BBMV)
Experiment: inhibition of cholesterol uptake in rabbit brush border membrane vesicles (BBMV)
Type: biochemical
Conditions: applied in donor SUV (9 mol %); scavenger receptor-mediated uptake of radiolabelled cholesterol ester from donor particles into BBMV bilayer
Protocol: The compounds of the invention and ezetimibe (commercially obtained or prepared according to Wu, G. Z. et al., J. Org. Chem. 1999) together with the glucuronide (the metabolite of ezetimibe, prepared according to Vaccaro, W. D.; Davis, H. R. Bioorg. Med. Chem. Lett. 1998, 8, 313-318) as appropriate reference compounds were evaluated by well-established methods to determine their inhibition of cholesterol uptake in rabbit brush border membrane vesicles (BBMV) (Table 1). Briefly, the scavenger receptor-mediated uptake of radiolabelled cholesterol ester from the loaded donor particles into the BBMV bilayer was measured in the presence of various compounds of the invention and appropriate reference compounds (Hauser, H. et al., Biochemistry 1998, 37, 17843-17850; Werder, M. et al., Biochemistry 2001, 40, 11643-11650; Boffelli, D. et al., FEBS Lett. 1997, 411, 7-11.)

Compound	Inhibition in (%)
O=C1[C@H](CC[C@H](O)c2ccc(F)cc2)[C@@H](c2ccc(O)cc2)N1c1ccc(F)cc1 [Ezetimibe, reference compound]	16 ± 4
O=C(O)[C@H]1O[C@@H](Oc2ccc([C@@H]3[C@@H](CC[C@H](O)c4ccc(F)cc4)C(=O)N3c3ccc(F)cc3)cc2)[C@H](O)[C@@H](O)[C@@H]1O [Glucuronide, reference compound]	19 ± 4
COC1OC(CS(=O)(=O)Oc2ccc([C@@H]3[C@@H](CC[C@H](O)c4ccc(F)cc4)CN3c3ccc(F)cc3)cc2)C(O)C(O)C1O (some centres unmarked) [IX]	27 ± 4
COC1OC(CS(=O)(=O)Oc2ccc([C@@H]3[C@@H](CC[C@H](O)c4ccc(F)cc4)C(=O)N3c3ccc(F)cc3)cc2)C(O)C(O)C1O (some centres unmarked) [IXb]	20 ± 5
O=C1[C@H](CC[C@H](O)c2ccc(F)cc2)[C@@H](c2ccc(OCC3OC(CO)C(O)C(O)C3O)cc2)N1c1ccc(F)cc1 (some centres unmarked) [VIII]	15 ± 3
CS(=O)(=O)Oc1ccc([C@@H]2[C@@H](CC[C@H](O)c3ccc(F)cc3)CN2c2ccc(F)cc2)cc1 [VII]	22 ± 2
CS(=O)(=O)Oc1ccc([C@@H]2[C@@H](CC[C@H](O)c3ccc(F)cc3)C(=O)N2c2ccc(F)cc2)cc1 [VI]	30 ± 4
O=C1[C@H](CC[C@H](O)c2ccc(F)cc2)[C@@H](c2ccc(OS(=O)(=O)c3ccccc3)cc2)N1c1ccc(F)cc1 [XIV]	26 ± 3
O=C1[C@H](CC[C@H](O)c2ccc(F)cc2)[C@@H](c2ccc(OS(=O)(=O)CC3OC(CO)C(OC4OC(CO)C(O)C(O)C4O)C(O)C3O)cc2)N1c1ccc(F)cc1 (some centres unmarked) [XVIII]	41 ± 4
O=C1[C@H](CC[C@H](O)c2ccc(F)cc2)[C@@H](c2ccc(OCC3OC(CO)C(OC4OC(CO)C(O)C(O)C4O)C(O)C3O)cc2)N1c1ccc(F)cc1 (some centres unmarked) [XVII]	28 ± 4
O=C(O)c1cc(S(=O)(=O)Oc2ccc([C@@H]3[C@@H](CC[C@H](O)c4ccc(F)cc4)C(=O)N3c3ccc(F)cc3)cc2)ccc1O [XVI]	21 ± 5
O=S(=O)(Oc1ccc([C@@H]2[C@@H](CC[C@H](O)c3ccc(F)cc3)CN2c2ccc(F)cc2)cc1)c1ccccc1 [XV]	19 ± 3
O=C1O[C@H](CC[C@H](O)c2ccc(F)cc2)[C@@H](c2ccc(O)cc2)N1c1ccc(F)cc1 [XXI]	19 ± 2
O=C1[C@H](CC[C@H](O)c2ccc(F)cc2)[C@@H](c2ccc(OS(=O)(=O)CC3OC(CO)C(O)C(O)C3O)cc2)N1c1ccc(F)cc1 (some centres unmarked) [X]	15 ± 3
